Reference: patent US5686486A, “4-hydroxy-benzopyran-2-ones and 4-hydroxy-cycloalkyl[b]pyran-2-ones useful to treat retroviral infections” (priority 1995, dated 1997)
Like-named read-outs stand apart in the source and are kept apart here.

Legend:
[1] = biological target: T1, HIV-1 protease (Human immunodeficiency virus type 1 group M subtype B, UniProt P04585); experiment: biochemical; conditions: for inhibition at 0.41 µM: read-out: HIV-1 Protease % Inhib, dose 0.410 uM; for inhibition at 1.23 µM: read-out: HIV-1 Protease % Inhib, dose 1.230 uM; for inhibition at 3.7 µM: read-out: HIV-1 Protease % Inhib, dose 3.700 uM; for inhibition at 11 µM: read-out: HIV-1 Protease % Inhib, dose 11.000 uM; for inhibition at 33 µM: read-out: HIV-1 Protease % Inhib, dose 33.000 uM; for inhibition at 100 µM: read-out: HIV-1 Protease % Inhib, dose 100.000 uM; for inhibition at 1 µM: read-out: HIV-1 Protease % Inhib, dose 1.000 uM; for inhibition at 10 µM: read-out: HIV-1 Protease % Inhib, dose 10.000 uM; for inhibition at 0.123 µM: read-out: HIV-1 Protease % Inhib, dose 0.123 uM; for inhibition at 0.37 µM: read-out: HIV-1 Protease % Inhib, dose 0.370 uM; for inhibition at 1.1 µM: read-out: HIV-1 Protease % Inhib, dose 1.100 uM; for inhibition at 3.3 µM: read-out: HIV-1 Protease % Inhib, dose 3.300 uM; for inhibition at 30 µM: read-out: HIV-1 Protease % Inhib, dose 30.000 uM
Outline: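 Percent inhibition derived from fluorescent cleavage product separated by filtration after streptavidin-bead capture of intact biotin/FITC substrate. Reaction: enzyme (10 μl, 0.1 μM stock) with substrate (20 μl, 0.2 μM stock) and compound, 1 h at room temperature in dark, pH 5.5 acetate buffer with 1.0 M NaCl and 0.05% NP-40.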

[2] = biological target: T1, HIV-1 protease; experiment: biochemical
Outline: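 Enzyme (40 nM stock) and substrate (200 μM stock) incubated with inhibitor, 24–48 two-fold serial concentrations, for 90 min at room temperature, then quenched with avidin beads. Nonlinear least-squares analysis gives Ki; a known-Ki inhibitor validates each run.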

SMILES	inhibition at 0.41 µM [1]	inhibition at 1.23 µM [1]	inhibition at 3.7 µM [1]	inhibition at 11 µM [1]	inhibition at 33 µM [1]	inhibition at 100 µM [1]	Ki ([2]; HIV-1 FITC KI)	inhibition at 1 µM [1]	inhibition at 10 µM [1]	inhibition at 0.123 µM [1]	inhibition at 0.37 µM [1]	inhibition at 1.1 µM [1]	inhibition at 3.3 µM [1]	inhibition at 30 µM [1]	Ki ([2]; read-out: HIV-1 FITC KI)
CCC(c1cccc(NS(=O)(=O)CCNC(=O)OC(C)(C)C)c1)c1c(O)c2ccccc2oc1=O (stereo not shown) [Example 140, 2-(N-t-butyloxycarbonyl-amino)-ethanesulfonic acid (3-(1-(4-hydroxy-2-oxo-2H-chromen-3-yl)-propyl)-phenyl)-amide]	< 10%	16.5%	48.1%	71.8%	91.1%	109%	762 nM								
O=c1oc2ccccc2c(O)c1C(Cc1ccccc1)Cc1ccccc1 [Example 146, 3-(1-Benzyl-2-phenyl-ethyl)4-hydroxy-chromen-2-one]						98.6%	130 nM	54.4%	92.7%						
CCC(c1cccc(C(=O)NC(C(=O)NCc2ccccn2)C(C)CC)c1)c1c(O)c2ccccc2oc1=O (stereo not shown) [Example 149, 3-(1-(4-Hydroxy-2-oxo-2H-chromen-3-yl)-propyl)-N-(2-methyl-1-(pyridin-2-ylmethylcarbomoyl)-butyl)-benzamide]						97.3%	405 nM	28.8%	99.2%						
CC(C)(C)C(c1ccccc1)c1c(O)c2ccccc2oc1=O (stereo not shown) [Example 152, 3-(2,2-Dimethyl-1-phenyl-propyl)-4-hydroxy-chromen-2-one]	< 10%	14.2%	35.5%	73.7%	102%	110%	1010 nM								
CCC(c1ccccc1)c1c(O)c2ccc(OCCOCCOCCOC)cc2oc1=O (stereo not shown) [Example 154]						96%	520 nM	13.6%	77.1%						
O=c1oc2ccccc2c(O)c1C1CCN(Cc2ccccc2)c2ccccc21 (stereo not shown) [Example 159, 3-(1-Benzyl-1,2,3,4-tetrahydro-quinolin4-yl)-4-hydroxy-chromin-2-one]	< 10%	14.4%	39.8%	74.3%	84.2%	91.1%	2400 nM								
CC(CO)C1CCCCCc2c1oc(=O)c(C(c1ccccc1)C1CC1)c2O (stereo not shown) [Example 161, 3-(Cyclopropylphenylmethyl)-5,6,7,8,9,10-hexahydro-4-hydroxy-10-(2-hydroxy-1-methylethyl)-2H-cyclooct[b]pyran-2-one]									106%	20%	67.3%	98.7%	104%	111%	32 nM
CC(O)CC1CCCCCc2c1oc(=O)c(C(c1ccccc1)C1CC1)c2O (stereo not shown) [Example 162, 3-(Cyclopropylphenylmethyl)-5,6,7,8,9,10-hexahydro-4-hydroxy-10-(2-hydroxypropyl)-2H-cycloocta[b]pyran-2-one]									102%	14.8%	56%	92.2%	99.3%	109%	40 nM
O=c1oc2c(c(O)c1C(c1ccccc1)C1CC1)CCCCCC2CC1CO1 (stereo not shown) [Example 163, 3-(Cyclopropylphenylmethyl)-5,6,7,8,9,10-hexahydro-4-hydroxy-10-(oxiranylmethyl)-2H-cycloocta[b]pyran-2-one]									107%	17.7%	56%	84.2%	98.6%	105%	34 nM
Nc1cccc(C(c2c(O)c3c(oc2=O)CCCCCC3)C2CC2)c1 (stereo not shown) [Example 164, 3-[(3-Aminophenyl)cyclopropylmethyl]-5,6,7,8,9,10-hexahydro-4-hydroxy-2H-cycloocta[b]pyran-2-one]									99.7%		14.6%	46.2%	87.3%	102%	78 nM
CC(C)(C)OC(=O)NCCC(=O)Nc1cccc(C(c2c(O)c3ccccc3oc2=O)C2CC2)c1 (stereo not shown) [Example 165, Carbamic acid, [3-[[3-[cyclopropyl(4-hydroxy-2-oxo-2H-1-benzopyran-3-yl)methyl]phenyl]amino]-3-oxopropyl]-, 1,1-dimethylethyl ester]	61.7%	86.7%	98.4%	106%	111%	114%	86 nM								
COc1ccc2c(O)c(C(c3cccc(NC(=O)CCNC(=O)OC(C)(C)C)c3)C3CC3)c(=O)oc2c1 (stereo not shown) [Example 167, Carbamic acid, [3-[[3-[cyclopropyl(4-hydroxy-7-methoxy-2-oxo-2H-1-benzopyran-3-yl)methyl]phenyl]amino]-3-oxopropyl]-, 1,1-dimethylethyl ester]	83.2%	99.5%	113%	114%	114%	116%	28 nM								
O=C(CCn1ccc2ccccc21)Nc1cccc(C(c2c(O)c3ccccc3oc2=O)C2CC2)c1 (stereo not drawn) [Example 168, Coumarin, 4-hydroxy-3-(α-(3-((3-(1H-indol-1-yl)-1-oxopropyl)amino)phenyl)cyclopropylmethyl)]							135 nM		94.7%		12.4%	46.4%	74.9%	107%	
CCC(=O)C1CCCCCc2c1oc(=O)c(C(c1ccccc1)C1CC1)c2O (stereo not shown) [Example 174, 3-(Cyclopropylphenylmethyl)-5,6,7,8,9,10-hexahydro-4-hydroxy-10-(1-oxopropyl)-2H-cycloocta[b]pyran-2-one]									104%	11.4%	35.8%	75%	95.9%	97.8%	35 nM
O=c1oc2c(c(O)c1C(c1ccccc1)C1CC1)CCCCCC2C(O)C1CC1 (stereo not shown) [Example 176, 10-(Cyclopropylhydroxymethyl)-3-(cyclopropylphenylmethyl)-5,6,7,8,9, 10-hexahydro-4-hydroxy-2H-cycloocta[b]pyran-2-one]									109%		27.3%	82.6%	104%	118%	37 nM
COCC1CCCCCc2c1oc(=O)c(C(c1ccccc1)C1CC1)c2O (stereo not shown) [Example 177, 3-(Cyclopropylphenylmethyl)-5,6,7,8,9,10-hexahydro4-hydroxy-10-(methoxymethyl)-2H-cycloocta[b]pyran-2-one]									104%		16.9%	53.9%	88.9%	104%	55 nM
COCCC1CCCCCc2c1oc(=O)c(C(c1ccccc1)C1CC1)c2O (stereo not shown) [Example 178, 3-(Cyclopropylphenylmethyl)-5,6,7,8,9,10-hexahydro-4-hydroxy-10-(2-methoxyethyl)-2H-cycloocta[b]pyran-2-one]									105%	16.2%	45.5%	86.4%	98.8%	103%	27 nM
